{
  "source": "paper PMC10057528",
  "about": "“Trypanosoma cruzi Sirtuin 2 as a Relevant Druggable Target: New Inhibitors Developed by Computer-Aided Drug Design” (Pharmaceuticals, 2023)",
  "molecules": {"B1": {"name": "TcSir2 (Trypanosoma cruzi strain CL Brener) (protein)", "chain": "MNQDNANFLHVVGEPTFEALARYIERNNVTKILVMAGAGISVAAGIPDFRSPHTGIYARLGKYNLNSPTDAFSITLLRERPDVFYSIVREMDLWPGHFWPTLVHHFIKLLADEGRLLRCCTQNIDGLERASGLPMSFLVEAHGSFSTASCIECRSPYDIELASRESREGKVPHCDRCGGVVKPDVVFFGESLPDAFFNVFAEITEVELLLIMGTSLQVHPFAELAVRVRPDVPRVLFNLERVGGAMFRFPTDEPTLNSFSRNHTGNSHSSSNSSSSSSSSSSDGYSQFANHAADAGGICRDIFFPGDCQLSVRRLAEAMGLGERLALAVREGEKKRESYGACESGNTHHTHMYTLTDRK"}},
  "key": {"[1]": {"test_system": "T. cruzi Sir2-related protein 1 (TcSir2rp1)", "design": "method as in PMID 29357372, PMID 19937668", "conditions": "cited from earlier work"}, "Chagas disease": {"test_system": "Chagas disease", "design": "method as in PMID 29357372", "conditions": "cited from earlier work"}, "[2]": {"test": "Mammalian cell viability assay (MTT)", "assay_type": "cell-based", "conditions": "rhesus monkey; LLCMK2 cells, MTT, 72 h; ND* = values measured but did not converge IC50 significantly; read-out: EC50 Cell Toxicity", "protocol": "(§1) LLCMK2 cells were maintained in RPMI-1640 medium supplemented with 10% fetal bovine serum (FBS) (Gibco, Carlsbad, CA, USA), penicillin/streptomycin (100 μg.mL^−1 and 0.1 mg.mL^−1, respectively, Sigma-Aldrich, St. Louis, Mo, USA) and 2 mM L-glutamine, and treated every second day. […] All cells were maintained in humidified CO2 at 37 °C. Cells were obtained at the third passage, propagated, and used in experiments between the fourth and fifth passages. Cells were routinely checked for contamination with mycoplasma by PCR. […] The principle of this method, as described by Mosmann et al., consists in measuring the cellular viability of the enzymatic activity of […] of living cells. […] At the end of the period incubation. 50 μL MTT (Sigma-Aldrich Corp. St. Louis, MO, USA) at the concentration of 2 mg.mL^−1. After 4 h incubation, 50 μL DMSO per well was added to dissolve formazan blue crystals. The absorbance was determined at 570 nm using Biotek Synergy HT microplate spectrophotometer. The percentage of cell viability was determined from the following formula (40): Cell Viability (%) = (Treatment Absorbance)/(Control Absorbance negative) × 100."}, "TcSir2": {"target": "T1, TcSir2 (Trypanosoma cruzi, UniProt Q4DP02)", "T1 sequence (Q4DP02 1-359)": "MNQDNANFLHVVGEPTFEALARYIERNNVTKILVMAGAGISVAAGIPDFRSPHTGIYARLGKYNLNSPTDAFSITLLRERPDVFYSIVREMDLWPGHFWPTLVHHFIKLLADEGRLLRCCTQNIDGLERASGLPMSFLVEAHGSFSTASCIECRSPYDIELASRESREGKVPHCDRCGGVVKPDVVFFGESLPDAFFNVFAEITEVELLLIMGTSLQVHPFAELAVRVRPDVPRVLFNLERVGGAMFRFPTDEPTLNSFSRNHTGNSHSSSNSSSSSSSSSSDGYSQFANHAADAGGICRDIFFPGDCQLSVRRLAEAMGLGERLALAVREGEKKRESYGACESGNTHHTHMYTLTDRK", "test": "Recombinant TcSir2 activity assay (fluorescent peptide deacetylation)", "assay_type": "biochemical", "conditions": "for IC50: recombinant TcSir2 0.1 μM, 10 μM peptide, 25 μM NAD+, 37 °C, ND = values measured but did not converge IC50 significantly", "source_text": "The peptide substrate (Abz-Gly-Pro-AcetylLys-Ser-Gln-EDDnp, where Abz stands for ortho-aminobenzoic), based on the TcSir2 specificity, was acquired from AminoTech (São Paulo, Brazil). This substrate contains an acetyl-Lys, which is available for trypsin cleavage only when the TcSir2 deacetylates the lysine side chain. After peptide deacetylation and cleavage, the fluorescent moiety (Abz) and the EDDnp suppressor group (N-[2,4-dinitrophenyl] ethylenediamine) are separated, and fluorescence (420 nm) can occur upon excitation at 320 nm. The TcSir2 activity assays were performed at 37 °C in a 25 mM Tris-HCl buffer with pH 8 and containing 137 mM NaCl, 2.7 mM KCl, and 1 mM MgCl2. The assays used 0.1 μM purified TcSir2 enzyme, 10 μM Abz-Gly-Pro-AcetylLys-Ser-Gln-EDDnp peptide, and 25 μM NAD^+ cofactor. After a 15 min incubation, 12 mM nicotinamide and 0.6 mg/mL trypsin (Sigma Aldrich, Sao Paulo, Brazil, N3376) were added to stop the reaction and cleave the deacetylated peptide (30 min at 37 °C). A control was also prepared without trypsin to detect the baseline fluorescence of the uncleaved peptide. Increasing concentrations of the putative inhibitory compound prepared in DMSO were also tested under the same conditions, with controls to detect the potential effect of DMSO at a maximum concentration of 5% (v/v) on TcSir2. Fluorescence was measured using a TECAN-InfinityPro2000 plate reader.\nThe percentage of inhibition data was calculated using the equation: Inhibition (%) = (1 − vi/vc) × 100, where vi represents the initial rate in the presence of the putative TcSir2 inhibitor, and vc is the initial rate of the control assay containing only DMSO. IC50 values were calculated based on the percentage of inhibition and concentration of the inhibitor using non-linear regression with least squares on GraphPad Prism (v8.1, GraphPad software, La Jolla, CA, USA). […] Km and Vmax in the presence and absence of the inhibitor were obtained by fitting the initial rate and [NAD^+] into the Michaelis-Menten equation on GraphPad Prism (GraphPad Prism version v8.1, for Windows, GraphPad Software, San Diego, California USA, www.graphpad.com).\nSupplementary methods – Enzyme kinetic characterisation\nThe enzyme kinetic assay for TcSir2, based on a previous publication1 was divided into three steps. In the first one, the recombinant TcSir2, NAD+ and the peptide substrate (Abz-Gly-Pro-AcetylLys-Ser-Gln-EDDnp) were incubated for 15 min at 37° C.\nIn the second step, in order to stop the reaction, 12 mM nicotinamide was added to the reaction medium. Finally in the third step trypsin was added and the reaction medium incubated for 30 min at 37° C, as previously described1. Trypsin cleaves this substrate in the linkage between lysine and serine only when the acetyl moiety had been previously […]\nwhen lysine was acetylated2. […]\nr2 = 0.99, Fig. S5a) and the peptide substrate (2.1 µM, r2 = 0.97, Fig. S5b) were determined using seven different substrate concentrations, whereas one of them was kept constant."}, "T. cruzi amastigote": {"test_system": "T. cruzi amastigote", "test": "In vitro trypanocidal activity with amastigote forms (Tulahuen LacZ, CPRG)", "assay_type": "cell-based, Trypanosoma cruzi", "conditions": "intracellular amastigotes in LLCMK2 cells, ND* = values measured but did not converge IC50 significantly, read-out: IC50 T. cruzi ama", "protocol": "In 96-well plates, cells from the LLCMK2 lineage were seeded at a concentration of 5 × 10^4 cells/mL (80 μL). The trypomastigote forms of the Tulahuen LacZ strain were added at a concentration of 5 × 10^5 cells/mL (in a total of 20 μL) and, subsequently incubated for 24 h at 37 °C with a 5% CO2 atmosphere. Next, the trypomastigote forms present in the supernatant were washed, leaving only the amastigote forms. Serial dilutions of the compounds were added (1.95 to 200 µM) and the plate was incubated for 72 h at 37 °C with a 5% CO2 atmosphere. At the end of this period, the CPRG substrate (chlorophenol red β-D-galactopyranoside, 400 μM in 0.3% Triton X-100, pH 7.4) was added and incubated for additional 6 h. After incubation, the sample’s absorbance values were measured using a spectrophotometer at 570 nm."}, "LLCMK2 cells": {"test_system": "LLCMK2 cells", "test": "Mammalian cell viability assay (MTT)", "assay_type": "cell-based", "conditions": "Macaca mulatta, LLC-MK2, Figure 4g; read-out: IC50 mammalian cell-lines", "protocol": "as §1"}, "[3]": {"substrate": "NC(=O)c1ccc[n+](C2OC(COP(=O)([O-])OP(=O)(O)OCC3OC(n4cnc5c(N)ncnc54)C(O)C3O)C(O)C2O)c1", "test": "Recombinant TcSir2 activity assay (fluorescent peptide deacetylation)", "assay_type": "biochemical, Trypanosoma cruzi", "conditions": "other: TcSir2, r2 = 0.99; pH 8.0; 37.0 °C", "source_text": "The peptide substrate (Abz-Gly-Pro-AcetylLys-Ser-Gln-EDDnp, where Abz stands for ortho-aminobenzoic), based on the TcSir2 specificity, was acquired from AminoTech (São Paulo, Brazil). This substrate contains an acetyl-Lys, which is available for trypsin cleavage only when the TcSir2 deacetylates the lysine side chain. After peptide deacetylation and cleavage, the fluorescent moiety (Abz) and the EDDnp suppressor group (N-[2,4-dinitrophenyl] ethylenediamine) are separated, and fluorescence (420 nm) can occur upon excitation at 320 nm. The TcSir2 activity assays were performed at 37 °C in a 25 mM Tris-HCl buffer with pH 8 and containing 137 mM NaCl, 2.7 mM KCl, and 1 mM MgCl2. […] A control was also prepared without trypsin to detect the baseline fluorescence of the uncleaved peptide. […] Fluorescence was measured using a TECAN-InfinityPro2000 plate reader.\nThe percentage of inhibition data was calculated using the equation: Inhibition (%) = (1 − vi/vc) × 100, where vi represents the initial rate in the presence of the putative TcSir2 inhibitor, and vc is the initial rate of the control assay containing only DMSO. IC50 values were calculated based on the percentage of inhibition and concentration of the inhibitor using non-linear regression with least squares on GraphPad Prism (v8.1, GraphPad software, La Jolla, CA, USA). […]"}, "[4]": {"conditions": "Trypanosoma cruzi, LLC-MK2, 72 h"}},
  "note": "Read-outs that look alike come from different tables or passages of the source.",
  "data": [
    {"molecule": "O=C1c2cccc3cccc(c23)C(=O)N1CCCNCCCCNCCCNCCCN1C(=O)c2cccc3cccc(c23)C1=O", "note": "[BNIP-spermidine, bisnaphthalimidopropyl-spermidine]", "values": [
      {"measurement": "inhibition of NAD+-dependent deacetylase activity", "setting": "[1]", "result": "inhibition"},
      {"measurement": "performance in the mouse model of Chagas disease", "setting": "Chagas disease", "result": "performed poorly"}
    ]},
    {"molecule": "O=C(Cn1ccnc1[N+](=O)[O-])NCc1ccccc1", "note": "[BZN, benznidazole, reference compound]", "values": [
      {"measurement": "EC50 at 72 h", "setting": "[2]", "result": "204.1 ± 0.81", "unit": "µM"},
      {"measurement": "IC50", "setting": "TcSir2; read-out: IC50 (TcSir2)", "result": "9.33 ± 0.01", "unit": "µM"},
      {"measurement": "IC50", "setting": "T. cruzi amastigote; [4]", "result": "4.55 ± 0.03", "unit": "µM"}
    ]},
    {"molecule": "O=C(NCc1coc(-c2ccccc2)n1)Nc1ccc(-c2noc(C(F)(F)F)n2)cc1", "note": "[CDMS-01]", "values": [
      {"measurement": "EC50 at 72 h", "setting": "[2]", "result": "135.9 ± 0.5", "unit": "µM"},
      {"measurement": "IC50", "setting": "LLCMK2 cells", "result": 136, "unit": "µM"},
      {"measurement": "Ki", "setting": "TcSir2", "result": 21.5, "unit": "µM"},
      {"measurement": "Vmax", "setting": "TcSir2; 3 µM CDMS-01", "result": 0.29, "unit": "µM"},
      {"measurement": "Vmax", "setting": "TcSir2; 5 µM CDMS-01", "result": 0.29, "unit": "µM"},
      {"measurement": "Vmax", "setting": "TcSir2; 10 µM CDMS-01", "result": 0.29, "unit": "µM"},
      {"measurement": "Vmax", "setting": "TcSir2; 17 µM CDMS-01", "result": 0.29, "unit": "µM"},
      {"measurement": "Vmax", "setting": "TcSir2; 20 µM CDMS-01", "result": 0.29, "unit": "µM"},
      {"measurement": "Vmax", "setting": "TcSir2; 30 µM CDMS-01", "result": 0.29, "unit": "µM"},
      {"measurement": "Vmax", "setting": "TcSir2; 40 µM CDMS-01", "result": 0.29, "unit": "µM"},
      {"measurement": "IC50", "setting": "TcSir2; IC50 (TcSir2)", "result": 40, "unit": "µM"},
      {"measurement": "inhibition mechanism", "setting": "TcSir2; effect on apparent Km and Vmax for NAD+", "result": "competitive"},
      {"measurement": "IC50", "setting": "T. cruzi amastigote; [4]", "result": 76.7, "unit": "µM"},
      {"measurement": "IC50", "setting": "T. cruzi amastigote; 72 h", "result": "76.68 ± 0.02", "unit": "µM"}
    ]},
    {"molecule": "NC(=O)c1cccnc1", "note": "[Nicotinamide, reference compound]", "values": [
      {"measurement": "IC50", "setting": "TcSir2; IC50 (TcSir2)", "result": "987.4 ± 0.64", "unit": "µM"},
      {"measurement": "inhibition of NAD+-dependent deacetylase activity", "setting": "[1]", "result": "inhibition"}
    ]},
    {"molecule": "Abz-Gly-Pro-AcetylLys-Ser-Gln-EDDnp", "values": [
      {"measurement": "Km", "setting": "TcSir2; TcSir2, r2 = 0.97, read-out: Km for the peptide substrate", "result": 2.1, "unit": "µM"}
    ]},
    {"molecule": "B1", "values": [
      {"measurement": "Km", "setting": "[3]", "result": 25, "unit": "µM"}
    ]}
  ]
}
